Tests used:
[1] = system: RAW.264.7 matured mice macrophages; test: MTS test of vitality / metabolic activity of the macrophages; type: cell-based
Protocol: In our experiments we investigated the early TNFα secretion of RAW.264.7 matured mice macrophages. This cell line stores large amount of preformed TNFα. […] Culture supernatant was collected and TNFα content was determined by R&D Duoset ELISA kit (detection limit<62.5 pg/ml). […] So the reduced TNFα level was due to inhibition of the release of preformed TNFα and not due to dying of the cells.
Effects of compound 3a and compound 3b on TNFα secretion and on NF-kappaB activation could have been based on cytotoxicity as well. To exclude that, we determined the metabolic activity of the cells, which is proportional to the cell number, by MTS test 8 hours after the treatment.

TNFα = test: late phase (transcriptionally induced) TNFα secretion of macrophages, ELISA; type: cell-based, mice; settings: preformed TNFα washed away after 4 hours, TNFα of next 4 hours; FIG. 3
Protocol: For the detection of late phase TNFα secretion the preformed TNFα, released after LPS induction of the macrophages, was washed away after 4 hours, and the amount of TNFα produced during the next 4 hours was determined by ELISA test. […] Results are depicted in FIG. 3.

[2] = system: RVH human melanoma cell line; test: cytotoxic effect on melanoma cell line, MTS assay, 48 hours; type: cell-based; settings: 48 hours treatment; FIG. 4
Protocol: RVH human melanoma cell line was cultured in Minimum Essential Medium Eagle (Sigma, St. Louis, Mo., USA), Na-piruvate, Glutamine, Non-essential amino acids, penicillin (50 IU/ml)-streptomycin ([…]), 10% fetal bovine serum at 37° C., in 5% CO2. Cells were trypsinized with trypsin/EDTA (Sigma-Aldrich, St. Louis, Mo.) on every second day and were passed into 60 or 100 mm plates. When the culture reached the required cell number (approx. 10^6) for the planned experiment 50.00 cell/well was plated into 24 well plates (Costar® 24 Well TC-Treated Microplates) and left overnight to adhere to the bottom of the well. Addition of the substance was performed the following way: next day the culture media was drawn from the adhered cells and media comprising compounds of the present invention in appropriate concentration and well mixed therein was pipetted (2 ml/well) onto the cells. The substance to be examined was diluted in 100% DMSO, this way an amount of DMSO corresponding to the highest concentration of the substance in a given assay were measured in the media of the control wells. After 48 hours of treatment live cells were detected by CellTiter® 96 Aqueous Non-radioactive Cell Proliferation Assay (Promega, Madison, Wis., USA) to determine the number of live cells in the treated and in the control samples.
MTS is converted to formazane in the living cells, which product is dissolved in the media, and its quantity/absorbance can be measured at 490 nm. […] Then, for the determination of the ratio of live cells 20 μl MTS and 1 μl PMS are added to 100 μl media. The enzyme reaction occurs at incubation at 37° C., 5% CO2 for 1 to 4 hours. Formazane produced by the cells is read on ELISA plate reader, from which the number of living cells can be obtained indirectly. Since the inventors performed the experiments in 24 well plates with 50.000 cell/well, the protocol had to be modified. After treatment of the cells for an appropriate time (type of compound, different concentrations), the incubation media (2 ml) containing the examined substance was removed, then 400 μl media containing reagents in the same concentration as given above (333.3 μl media, 66.6 μl MTS, and 3.3 μl PMS per well) was pipetted to the cells. To be able to use ELISA plate reader (Multiskan R C, Thermo Labsystems, Franklin, Mass., USA) 400 μl sample from each single well of the 24 well plate was pipetted into four wells of a 96 well plate (Micromethod plates 96 wells flat form) in 100 μl aliquots. That also helped to eliminate possible errors due to inconsistent pipetting. On each 24 well plate 4 wells were control samples. From these 3 times 100 μl was pipetted onto the 96 well plates, so, altogether 12 controls were provided on each 96 well plate. The remaining 4 wells were for background measurements with 100 μl media containing MTS and PMS as described above.

[3] = system: HepG2 (human hepatocellular carcinoma); test: cytotoxic effect on hepatocellular carcinoma cell line, MTS test, 24 hours; type: cell-based; settings: 24 hours incubation, already at 20 and 50 μM concentrations
Protocol: (§1) In these experiments HepG2 (human hepatocellular carcinoma) and MCF7 (Human breast adenocarcinoma) cells were used. They were cultured in the following media: For HepG2 Dulbecco's Modified Eagle Medium (D-MEM) (high glucose) (Gibco BRL, Carlsbad, Calif., USA), penicillin (50 IU/ml)-streptomycin ([…]), 10% fetal bovine serum; for MCF7 (Human breast adenocarcinoma) 1:1 mixture of Dulbecco's Modified Eagle Medium (D-MEM) (high glucose) (Gibco BRL, Carlsbad, Calif., USA) and Nutrient Mixture F-12 Ham (Sigma, St. Louis, Mo., USA), penicillin (50 IU/ml)-streptomycin ([…]), 10% fetal bovine serum. Experiments were performed as described in Example 9. with the difference that the incubation time was 24 hours in this case. After the incubation period MTS test (3-(4,5-dimethylthiazol-2-yl)-5-(3-carboxymethoxyphenyl)-2-(4-sulfophenyl)-2H-tetrazolium) (Promega, Madison, Wis., USA) was performed as described above.

[4] = system: MCF7 (Human breast adenocarcinoma); test: cytotoxic effect on breast carcinoma cell line, MTS test, 24 hours; type: cell-based; settings: 24 hours incubation, in the concentration range tested
Protocol: as §1

human melanoma (HT168M1) = test: subcutaneous melanoma tumor model; type: in vivo, CB17/scid mice; settings: 40 mg/kg per os, once a day five days per week for 3 weeks from day 7; FIG. 8
Protocol: Slightly anesthetized (diethyl ether narcosis) adult male CB17/scid mice born with immunodeficiency were subcutaneously (s.c.) implanted with 8×10^5 cells from in vitro human melanoma (HT168M1) cultures. After tumor cell inoculation animals were randomly assigned into three groups and their ears were marked. From the 7th day after the tumor cell inoculation mice were treated once a day five days per week for 3 weeks with compound 2 (40 mg/kg), or with compound 3b (40 mg/kg) per os by gavage. Control animals were treated with appropriate dilution of the carrier (DMSO) in a similar manner with similar frequency. Body weight changes were monitored once a week for each animal. When subcutaneous tumor reached palpable size its dimensions were also detected with caliper. Tumor volume was estimated by the formula π/6×a×b^2, where “a” is the longer and “b” is the shorter diameter. 30 days after implantation animals were sacrificed by bleeding in Nembutal (75 mg/kg) anesthesia. Evaluation was based on the mass of the primary tumor.
In this experiment the effect of compound 2 and compound 3b was tested in oral administration at the same dose (40 mg/kg).

[5] = system: pseudorabies Bartha type viruses; type: cell-based, pseudorabies virus; settings: 100 μM

For `CCNc1c(F)c(F)c2c(c1F)C(=O)N(c1c(C(C)C)cccc1C(C)C)C2=O` [Compound 3b, 2-(2,6-diisopropylphenyl)-5-(ethylamino)-4,6,7-trifluoroisoindole-1,3-dione], which “vitality of the cells (MTS test)” value ([1]; 3 hours after the stimulation with LPS) is on record?
The value was “no cell death was detected”.

And the “metabolic activity of the cells (MTS test)” value ([1]; 8 hours after the treatment)?
Its value is “not found to be toxic”.

And the “late TNFα secretion of macrophages” value (TNFα)?
Its value is “inhibited late TNFα secretion of macrophages in a concentration dependent way”.

What about the “inhibition of RVH melanoma cells (cytotoxic effect)” value [2] of the same molecule?
Its value is “strongest inhibition”.

And the “effect on HepG2 cells” value [3]?
Its value is “strong effect”.

And the “effect on MCF7 cells” value [4]?
The value was “weak effect”.

What about the “effect on growth of the subcutaneous primary tumor (tumor mass)” value (human melanoma (HT168M1)) of the same molecule?
The value was “significantly (p=0.05) reduced tumor size”.

What about the “entry of the viruses into the cell” value [5] of the same molecule?
Its value is “does not inhibit the entry of the viruses into the cell”.

What about the “release and spreading of the viruses in vitro” value [5] of the same molecule?
The value was “does inhibit their release and thus their spreading in vitro”.

What about the “plaque size (viral positive cells)” value ([5]; 24 hours) of the same molecule?
The value was 2-6 cells/plaque.

Source: patent US8232299B2, “Phthalimide derivatives that influence cellular vesicular systems, pharmaceutical compositions, and use thereof” (Avidin Kft., priority 2007, dated 2012)
